US9995734B2, “Human T cell line assay for evaluating the immunologic identity of glatiramer acetate preparations” (Mylan Inc., priority 2013, dated 2018)

Experiments:
[1] = tested on: Donor 4 COP Responsive T-Cell Lines; test: Multiplex bead cytokine assay (FlowCytomix), Donor 4 COP responsive T-cell lines; type: cell-based, human; design: IFN-γ / 1L-9 / IL-22 / IL-13: unit not given here
Experimental: (§1) The concentration of multiple cytokines was measured simultaneously using FlowCytoMix™ kits (eBioscience, San Diego Calif.). These are fluorescent bead based assays consisting of beads conjugated to anti cytokine antibodies. Beads specific for each cytokine are distinguished by size and fluorescence at 670 run. Cytokine bound to each bead is detected using a phycoerythrin conjugated antibody so that the fluorescence at 585 nm reflects the concentration of cytokine in the sample. Two kits were utilized which measured different cytokine panels. The TH1/TH2 kit measures IFN-γ, IL-1β, IL-2, IL-4, IL-5, IL-6, IL-8, IL-10, IL-12p70, TNF-α (TNF) and TNF-β (LT). The TH1/TH2/TH9/TH17/TH22 kit measures […], IL-1β, IL-2, IL-4, IL-5, IL-6, IL-9, IL-10, IL-12p70, IL-13, IL-17, IL-22, and TNF-α (TNF). Both kits were used following the manufacturer's instructions.
On Day 23 the positive wells (cell lines listed in Table 26) were transferred to a 24-well plate and restimulated with 10 μg/mL COP in the presence of mitomycin-treated autologous PBMC. IL-2 was added at Day 24. On Day 31 (after four rounds of restimulation) ten lines were restimulated with 10 μg/mL COP to confirm antigen reactivity by a cytokine secretion assay. T-cells were added at 2×10^4 cells/well in 96-well plates in X-VIVO 15 medium. Each line was separately stimulated with 10 μg/mL GMA, and 10 μg/mL COP in the presence of (2×10^5 cells/well, i.e., 1×10^6 cells/mL) mitomycin-treated autologous PBMC. Culture medium was collected after 20-24 hours for cytokine assay (FlowCytomix multiplex bead assay). The supernatants were tested in triplicate for IL-12 p70, IFN-γ, IL-2, IL-10, IL-6, IL-4, IL-5, TNF-α, and TNF-β secretion. […] Secretion of IL-2, 11-10, and IL-4 varied among the lines. All samples also secreted IL-8 (data not shown).
Culture medium from each of two Donor 4 cell lines was assayed for an extended panel of cytokines, showing production of IL-13 and IL-22 (Table 32).

[2] = tested on: Donor 3 GMA Responsive T Cells; test: Cytokine multiplex assay, Donor 3 GMA responsive T cells; type: cell-based, human; conditions: culture medium
Experimental: as §1

[3] = T-cell line 1H9, 10 μg/mL, Day 31, medium after 20-24 hours
[4] = T-cell line 1H11, 10 μg/mL, Day 31, medium after 20-24 hours
[5] = T-cell line 205-1B4, extended cytokine multiplex assay
[6] = T-cell line 205-1B7, 10 μg/mL, Day 31, medium after 20-24 hours
[7] = T-cell line 205-1C4, 10 μg/mL, Day 31, medium after 20-24 hours
[8] = T-cell line 205-1F4, extended cytokine multiplex assay
[9] = T-cell line 205-1F5, 10 μg/mL, Day 31, medium after 20-24 hours
[10] = T-cell line 205-1G3, 10 μg/mL, Day 31, medium after 20-24 hours
[11] = T-cell line 205-1H5, 10 μg/mL, Day 31, medium after 20-24 hours
[12] = T-cell line 205-1H7, 10 μg/mL, Day 31, medium after 20-24 hours

glatiramer acetate [GMA]
IFN-y [1, 3]: 182.77 pg/mL
IL-2 [1, 3]: <=0 pg/mL
IL-4 [1, 3]: <=0 pg/mL
IL-5 [1, 3]: <=0 pg/mL
IL-6 [1, 3]: 74.92 pg/mL
IL-10 [1, 3]: <=0 pg/mL
IL-12 p70 [1, 3]: <=0 pg/mL
TNF-α [1, 3]: 161.89 pg/mL
TNF-β [1, 3]: <=0 pg/mL
IFN-y [1, 4]: 929 pg/mL
IL-2 [1, 4]: 22.78 pg/mL
IL-4 [1, 4]: <=0 pg/mL
IL-5 [1, 4]: 3349.8 pg/mL
IL-6 [1, 4]: 28.28 pg/mL
IL-10 [1, 4]: 145 pg/mL
IL-12 p70 [1, 4]: 2.24 pg/mL
TNF-α [1, 4]: 609.49 pg/mL
TNF-β [1, 4]: <=0 pg/mL
1L-9 [1, 5]: 21
IFN-γ [1, 5]: 713
IL-2 [1, 5]: 0
IL-4 [1, 5]: 117
IL-5 [1, 5]: 3104
IL-6 [1, 5]: 109
IL-10 [1, 5]: 25
IL-13 [1, 5]: 13895
IL-22 [1, 5]: 478
TNF-α [1, 5]: 868
IFN-y [1, 6]: 828.5 pg/mL
IL-2 [1, 6]: 10.89 pg/mL
IL-4 [1, 6]: 187.29 pg/mL
IL-5 [1, 6]: 6854.13 pg/mL
IL-6 [1, 6]: 187.85 pg/mL
IL-10 [1, 6]: 182.81 pg/mL
IL-12 p70 [1, 6]: 44.57 pg/mL
TNF-α [1, 6]: 1305.37 pg/mL
TNF-β [1, 6]: 217.5 pg/mL
IFN-y [1, 7]: 1046.32 pg/mL
IL-2 [1, 7]: 312.13 pg/mL
IL-4 [1, 7]: 124.7 pg/mL
IL-5 [1, 7]: 5434.06 pg/mL
IL-6 [1, 7]: 149.35 pg/mL
IL-10 [1, 7]: 45.24 pg/mL
IL-12 p70 [1, 7]: 46.89 pg/mL
TNF-α [1, 7]: 1059.01 pg/mL
TNF-β [1, 7]: 81.04 pg/mL
1L-9 [1, 8]: 7
IFN-γ [1, 8]: 1207
IL-2 [1, 8]: 76
IL-4 [1, 8]: 7
IL-5 [1, 8]: 1459
IL-6 [1, 8]: 73
IL-10 [1, 8]: 16
IL-13 [1, 8]: 4506
IL-22 [1, 8]: 186
TNF-α [1, 8]: 323
IFN-y [1, 9]: 479.26 pg/mL
IL-2 [1, 9]: 197.46 pg/mL
IL-4 [1, 9]: 328.72 pg/mL
IL-5 [1, 9]: 13930.97 pg/mL
IL-6 [1, 9]: 314.54 pg/mL
IL-10 [1, 9]: 231.63 pg/mL
IL-12 p70 [1, 9]: 67.53 pg/mL
TNF-α [1, 9]: 1084.01 pg/mL
TNF-β [1, 9]: 260.35 pg/mL
IFN-y [1, 10]: 193.91 pg/mL
IL-2 [1, 10]: 5.27 pg/mL
IL-4 [1, 10]: <=0 pg/mL
IL-5 [1, 10]: 121.17 pg/mL
IL-6 [1, 10]: 16.67 pg/mL
IL-10 [1, 10]: <=0 pg/mL
IL-12 p70 [1, 10]: 2.37 pg/mL
TNF-α [1, 10]: 68.79 pg/mL
TNF-β [1, 10]: 17.66 pg/mL
IFN-y [1, 11]: 902.95 pg/mL
IL-2 [1, 11]: <=0 pg/mL
IL-4 [1, 11]: 46.82 pg/mL
IL-5 [1, 11]: 2534.09 pg/mL
IL-6 [1, 11]: 52.4 pg/mL
IL-10 [1, 11]: <=0 pg/mL
IL-12 p70 [1, 11]: 8.78 pg/mL
TNF-α [1, 11]: 910.83 pg/mL
TNF-β [1, 11]: 79.8 pg/mL
IFN-y [1, 12]: 1275.97 pg/mL
IL-2 [1, 12]: 176.52 pg/mL
IL-4 [1, 12]: 58.41 pg/mL
IL-5 [1, 12]: 96.95 pg/mL
IL-6 [1, 12]: 64.82 pg/mL
IL-10 [1, 12]: <=0 pg/mL
IL-12 p70 [1, 12]: 13.42 pg/mL
TNF-α [1, 12]: 552.89 pg/mL
TNF-β [1, 12]: 34.81 pg/mL
cytokine secretion ([1]; most tested Donor 4 cell lines, Day 31, 10 μg/mL, 20-24 hours): secreted IFN-γ, IL-5, and TNF-α
IFN-γ ([2]; T-cell line 165-B5G): 201 pg/mL
IL-4 ([2]; T-cell line 165-B5G): 47 pg/mL
IL-5 ([2]; T-cell line 165-B5G): 399 pg/mL
IL-13 ([2]; T-cell line 165-B5G): 2930 pg/mL
IL-22 ([2]; T-cell line 165-B5G): 248 pg/mL
IFN-γ ([2]; T-cell line 165-D8G): 121 pg/mL
IL-4 ([2]; T-cell line 165-D8G): 12 pg/mL
IL-5 ([2]; T-cell line 165-D8G): 309 pg/mL
IL-13 ([2]; T-cell line 165-D8G): 3326 pg/mL
IL-22 ([2]; T-cell line 165-D8G): 405 pg/mL
IFN-γ ([2]; T-cell line 165-E9G): 837 pg/mL
IL-4 ([2]; T-cell line 165-E9G): 6 pg/mL
IL-5 ([2]; T-cell line 165-E9G): 236 pg/mL
IL-13 ([2]; T-cell line 165-E9G): 1499 pg/mL
IL-22 ([2]; T-cell line 165-E9G): 245 pg/mL
IFN-γ ([2]; T-cell line 165-F8G): 889 pg/mL
IL-4 ([2]; T-cell line 165-F8G): 5 pg/mL
IL-5 ([2]; T-cell line 165-F8G): 370 pg/mL
IL-13 ([2]; T-cell line 165-F8G): 1193 pg/mL
IL-22 ([2]; T-cell line 165-F8G): 197 pg/mL
IFN-γ ([2]; T-cell line 165-F10G): 1108 pg/mL
IL-4 ([2]; T-cell line 165-F10G): 114 pg/mL
IL-5 ([2]; T-cell line 165-F10G): 2589 pg/mL
IL-13 ([2]; T-cell line 165-F10G): 10897 pg/mL
IL-22 ([2]; T-cell line 165-F10G): 680 pg/mL
IFN-γ ([2]; T-cell line 165-H11G): 724 pg/mL
IL-4 ([2]; T-cell line 165-H11G): 7 pg/mL
IL-5 ([2]; T-cell line 165-H11G): 320 pg/mL
IL-13 ([2]; T-cell line 165-H11G): 1058 pg/mL
IL-22 ([2]; T-cell line 165-H11G): 201 pg/mL
